Where a SMILES comes first, the peptide text is derived from it. Side-chain parts run from the residue outwards. The star is where a group is joined. X1 = CN1CC[C@]23c4c5ccc(O)c4O[C@H]2[C@@H](N*)CC[C@@]3(O)C1C5
Assay: Binding affinity of Opioid receptor delta 1 by the displacement of delta-selective [3H]DSLET from brain membrane preparations.

Compound | Ki [nM]
CC(=O)N[C@H]1CC[C@@]2(O)C3Cc4ccc(O)c5c4[C@@]2(CCN3C)[C@H]1O5 [N-[(1S,13R,14S,17S)-10,17-dihydroxy-4-methyl-12-oxa-4-azapentacyclo[9.6.1.0^{1,13}.0^{5,17}.0^{7,18}]octadeca-7(18),8,10-trien-14-yl]acetamide] | 163
CC(=O)NCC(=O)NCC(=O)N[C@H]1CC[C@@]2(O)C3Cc4ccc(O)c5c4[C@@]2(CCN3C)[C@H]1O5 [1N-[10,17-dihydroxy-4-methyl-(13R,17S)-12-oxa-4-azapentacyclo[9.6.1.01,13.05,17.07,18]octadeca-7(18),8,10-trien-14-ylcarbamoylmethyl]-2-methylcarboxamidoacetamide] | 181
H-YQGFL-OH | 47
CC(C)C[C@H](NC(=O)[C@H](Cc1ccccc1)NC(=O)CNC(=O)[C@H](CCC(=O)N[C@H]1CC[C@@]2(O)C3Cc4ccc(O)c5c4[C@@]2(CCN3C)[C@H]1O5)NC(=O)[C@@H](N)Cc1ccc(O)cc1)C(=O)O [oxymorphamine- and enkephalin-containing ligand 1] (H-YE(X1)GFL-OH) | 26
CC(C)C[C@H](NC(=O)[C@H](Cc1ccccc1)NC(=O)CNC(=O)[C@H](CCC(=O)NCC(=O)NCC(=O)N[C@H]1CC[C@@]2(O)C3Cc4ccc(O)c5c4[C@@]2(CCN3C)[C@H]1O5)NC(=O)[C@@H](N)Cc1ccc(O)cc1)C(=O)O [oxymorphamine- and enkephalin-containing ligand 2] (H-YE([Gly-Gly-X1])GFL-OH) | 51
CC(C)C[C@H](NC(=O)[C@H](Cc1ccccc1)NC(=O)CNC(=O)[C@H](CCC(=O)NCC(=O)NCC(N)=O)NC(=O)[C@@H](N)Cc1ccc(O)cc1)C(=O)O (H-YE([Gly-Gly-NH2])GFL-OH) | 88

Source: BindingDB's records for doi:10.1021/jm00394a010 (University of Minnesota, 1987)
